From US20250064766A1, “COMPOSITIONS AND METHODS FOR INCREASING ARGININE AND NITRIC OXIDE LEVELS” (priority 2023, published 2025)
≈ marks a conversion by molar mass, not a printed value.

What was measured:
[1] = Saturated solubility in deionized water at 62° F.; conditions: 16.7 °C, thermodynamic from solid
Procedure: Add five grams of conjugate or blend into 100 mL of water in a 250 ml Beaker. • 2. Record temperature of water before adding conjugate or blend. • 3. After conjugate is added to water, stir or swirl solution for 2 minutes exactly. • 4. If the solution is still cloudy or precipitate is present after 2 minutes, promptly transfer mixture into filter. • 5. If the solution is not cloudy and all of conjugate appears to have gone into solution, add another five grams of conjugate and repeat on from step 3. • 6. Record all data and amounts of conjugate added. • 7. Once solution with precipitate has been filtered, dry the filter with conjugate and use mass by difference to record dry mass of conjugate.
(§1) The solution was filtered, dried, and massed.
as §1, §1, §1, §1

[2] = Urine arginine and citrulline levels following stimulating agent dosing (LC-MRM/MS); type: in vivo
Procedure: The subjects in each of Groups A and B were given a single 6 g dose (powder dissolved in about 4 oz of water). A urine sample is taken from each subject prior to dosing (baseline) and 24 hours after dosing. The pre-dosing sample for each subject is used as a baseline from which to compare any increase or decrease in arginine and/or citrulline urine levels. • Group A (8 subjects): 6 g of citrulline HCl in 4 oz. of water • Group B (8 subjects): 6 g of L-Citrulline in 4 oz. of water
A third group, consisting of seven subjects, were given a single 2 g dose, otherwise following the same protocol: • Group C (7 subjects): 2 g of citrulline HCl in 4 oz. of water
Internal standard (IS) solutions of arginine-13C6 and citrulline-d7 were prepared in 6 percent trichloroacetic acid solution. Standard substances of arginine and citrulline HCl were precisely weighed and dissolved in Sigmatrix Urine Diluent to make their stock solutions, at 5 mM for each compound. The two stock solutions were then mixed at an equal volume and the mixed standard solution was step by step diluted with Sigmatrix Urine Diluent to have nine serially diluted calibration solutions. The concentrations of each compound in the calibration solutions ranged from 0.015 to 250 μM.
Urine samples were thawed at room temperature. After vortex-mixing for 5 s, 100 μL of each sample was precisely aliquoted into a 1.5-mL Eppendorf safe-lock tube. A mixed urine sample was pooled from 100 μL of each of 10 randomly selected among all the urine samples. Nine 100-μL aliquots of this pooled urine sample were processed along with the batch samples and the calibration solutions for the purpose of quality control (QC) to monitor the analytical variations of the sample preparation and the assay.
To 100 μL of urine or 100 μL of each calibration solution, 100 μL of the IS solution was added. The mixtures were vortexed for 10 s at 3,000 rpm and then sonicated in an ice-water bath for 1 min, followed by centrifugal clarification at 21,000 g and 10° C. for 10 min. 100 μL of the clear supernatant of each solution was mixed with 900 μL of water. 4-μL aliquots of the resultant sample and calibration solutions were injected to run liquid chromatography-multiple reaction monitoring mass spectrometry (LC-MRM/MS) on an Agilent 1290 UHPLC system connected to an Agilent 6495B triple-quadrupole mass spectrometer, which was operated with positive-ion electrospray ionization and in the MRM mode using two pairs of MRM ion transitions and other MS parameters for arginine and citrulline, respectively.
A Waters HSS T3 UPLC column (2.1*100 mm, 1.8 μm) was used for the chromatographic separation and a 5-mM heptafluorobutyric acid solution and acetonitrile were used as the mobile phase for binary-solvent gradient elution under optimized conditions. LC-MRM/MS raw data files were acquired and processed using the Agilent MassHunter® software suite. For concentration calculations, linearly regressed calibration curves of arginine and citrulline were constructed respectively with the data acquired from the calibration solutions. Concentrations of the two compounds detected in urine were calculated by interpolating the calibration curve with the peak area ratios areas measured from the sample solutions, in an appropriate concentration range for each compound.

[3] = Plasma arginine and citrulline levels following stimulating agent dosing (LC-MRM/MS); type: in vivo
Procedure: Plasma samples from each of Groups A, B, and C were taken from each subject prior to dosing (baseline) and at 30 minute intervals thereafter up to 180 minutes after dosing (30, 60, 90, 120, and 180 minutes). The pre-dosing sample for each subject is used as a baseline from which to compare any increase or decrease in arginine and/or citrulline plasma levels.
Internal standard (IS) solution of arginine-13C6 and citrulline-d7 were prepared in 6 percent trichloroacetic acid solution. Standard substances of arginine and citrulline were precisely weighed and dissolved in SigMatrix Ultra Serum Diluent to make their stock solutions, at 2000 or 4000 µM for each compound. The stock solutions were then mixed and further diluted with SigMatrix Ultra Serum Diluent to have 9 serially diluted calibration solutions. The concentrations of each compound in the calibration solutions ranged from 0.0008 to 50 μM.
Plasma samples were thawed at room temperature. After vortex-mixing for 5 s, 50 μL of each sample was precisely aliquoted into a 1.5-mL Eppendorf safe-lock tube. […] Twelve 50-μL aliquots of this pooled plasma sample were processed in parallel and analyzed periodically, along with the preparation and analysis of the batch samples and the calibration solutions for the purpose of quality control (QC) to monitor the analytical variations of the sample preparation and the assay. […]

[4] = single 6 g dose in 4 oz. of water, 24 hours after dosing
[5] = single 6 g dose in 4 oz. of water, Baseline (prior to dosing)

| SMILES | solubility at 2 min [1] | concentration at 24 h ([2]; human, urine, oral, single 2 g dose in 4 oz. of water, 24 hours after dosing, read-out: Citrulline Urine Levels Total Average Amount) | percent increase in urine citrulline 24 hours after dosing per gram ([2]; single 2 g dose) | Citrulline Urine Levels Total Average Amount ([2]; single 2 g dose in 4 oz. of water, Baseline (prior to dosing)) | percent increase in urine citrulline 24 hours after dosing per gram ([2]; single 6 g dose) | Citrulline Urine Levels Total Average Amount [2, 4] | Citrulline Urine Levels Total Average Amount [2, 5] | arginine production per dose, comparison of Groups A-C (plasma) ([3]; single 2 g dose, normalized per dose) | solubility at 2 min ([1]; water) | amount of citrulline in plasma, comparison of Groups A-C ([3]; single 6 g dose) |
| --- | --- | --- | --- | --- | --- | --- | --- | --- | --- | --- |
| Cl.NC(=O)NCCC[C@H](N)C(=O)O [Citrulline HCl, citrulline hydrochloride] | 149 mg/mL | 17900 µM | about 300 percent/g | 2,471.80 μM | about 300 percent/g | 157,053.26 μM | 8,773.04 μM | highest arginine production per dose |  |  |
| NC(=O)NCCC[C@H](N)C(=O)O [L-Citrulline, L-citrulline, reference compound] |  |  |  |  | about 1000 percent/g | 128,215.41 μM | 2,042.91 μM |  | 49.8 mg/mL (≈ 284 mM) | much larger amount of citrulline in plasma |
